{
  "source": "patent US20110206756A1",
  "about": "“DITHI[…] CHELATES AND METHODS OF MAKING AND USING THEREOF” (UNIVERSITY OF UTAH RESEARCH FOUNDATION, priority 2008, published 2011)",
  "key": {"[1]": {"tested_on": "HL-60 myeloid leukemia cell line", "conditions": "in P123 Pluronic micelles; for cell growth inhibition compared with vehicle: HL-60, up to 0.24 μM, 3 days", "method": "The in vitro anti-leukemic activity of both chelates using the HL-60 myeloid leukemia cell line was compared. […] The DETC/metal chelates were initially dissolved in dimethylsulfoxide (DMSO). This 2 mM DETC/metal stock in DMSO was then mixed with a polymer stock and micellization was allowed to occur at room temperature. The final polymer concentration was 2% by weight. […] DETC/metal chelates were added at concentrations of up to 0.24 μM. Cell growth was assessed after 3 days using the MTS assay."}, "[2]": {"tested_on": "HL-60 cells", "experiment": "Leukemia cell growth in vivo, HL-60 flank tumors in mice", "set-up": "species or system NOD/SCID IL2Rγ^null mice", "description": "In another preliminary experiment, the effect of DETC/metal chelates on leukemia cell growth in vivo was studied. NOD/SCID IL2Rγ^null mice were implanted bilaterally in the flanks with 19×10^6 HL-60 cells. […] The experiment was terminated on day 15. At that point 3 out of 4 control animals had died and the one remaining alive had tumor volumes that had exceeded 10% of initial body weight. None of the animals treated with DETC/Cu died."}, "[3]": {"tested_on": "HL-60 cells", "conditions": "HL-60, 0.32 μM, 24 hours, average and SEM of 3 experiments; controls 7±1%", "method": "HL-60 cells were treated with DETC/Cu^2+ at a concentration of 0.32 μM for 24 hours upon which the number of apoptotic cells was determined using propidium iodide (PI) staining and flow cytometry. Analysis for the presence of apoptotic cells was modeled using the ModFit software."}, "[4]": {"tested_on": "colon cancer cell line DLD-1", "conditions": "read-out: 50% growth inhibitory concentration (IC50); DLD-1, two days, in P123 micelles", "method": "(§1) The effect of DETC/Cu^2+ chelates on the growth of 3 solid tumor cell lines in vitro was studied. The cell lines studied were the colon cancer cell line DLD-1, the prostate cancer cell line PPC-1 and the hepatoma cell line Hep-3B. […] Cells in logarithmic growth phase were cultured in RPMI1640/10% FBS media at a concentration of 120,000 cells/mL. DETC/Cu^2+ was added to the cells at concentrations ranging from 0 to 1 μM. […] Two days after drug addition, cell growth was assayed using the CellTiter 96 assay from Promega (Madison, Wis.) using the manufacturer's protocol."}, "[5]": {"tested_on": "prostate cancer cell line PPC-1", "conditions": "read-out: 50% growth inhibitory concentration (IC50); PPC-1, two days, in P123 micelles", "method": "as §1"}, "[6]": {"tested_on": "hepatoma cell line Hep-3B", "conditions": "read-out: 50% growth inhibitory concentration (IC50), two days, in P123 micelles", "method": "as §1"}},
  "data": [
    {"smiles": "CCN(CC)C(=S)[S-].[Ag+]", "note": "[DETC/Ag^+, silver salt of diethyldithiocarbamate]", "values": [
      {"measurement": "cell growth inhibition compared with vehicle", "setting": "[1]", "value": "growth inhibition to a much greater extent"}
    ]},
    {"smiles": "CCN(CC)C(=S)[S-].CCN(CC)C(=S)[S-].[Cu+2]", "note": "[DETC/Cu^2+, copper salt of diethyldithiocarbamate]", "values": [
      {"measurement": "toxicity", "setting": "[2]; 2 μmol/kg intravenously every other day, in P123 micelles", "value": "No obvious toxicity"},
      {"measurement": "tumor volume, tumor growth", "setting": "[2]; after 12 days of therapy, 2 μmol/kg i.v. every other day, versus P123 micelle controls", "value": "delay in tumor growth"},
      {"measurement": "animals that died", "setting": "[2]; day 15, 4 mice per group, 3 out of 4 controls died", "value": "None"},
      {"measurement": "relative potency of growth inhibition", "setting": "[1]; HL-60, 3 days", "value": "more potent than the DETC/Ag^+ chelate"},
      {"measurement": "cell growth inhibition compared with vehicle", "setting": "[1]", "value": "growth inhibition to a much greater extent"},
      {"measurement": "apoptotic cells", "setting": "[3]", "value": "16±2", "unit": "%"},
      {"measurement": "IC50", "setting": "[4]", "value": 370, "unit": "nM"},
      {"measurement": "IC50", "setting": "[5]", "value": 180, "unit": "nM"},
      {"measurement": "IC50", "setting": "[6]", "value": 130, "unit": "nM"}
    ]}
  ]
}
